Literature values as cited in patent US20060045865A1, “Controlled regional oral delivery” (Spherics, Inc., priority 2004, published 2006).
Like-named read-outs stand apart in the source and are kept apart here.

Columns and labels:
[1] = not given; remark: listed apart in the source
H. pylori = settings: pH 5.5

Compound | Bioavailability (oral) | Solubility in water [1] | further results
1-[(4R,5s)-5-[(2-aminoethyl)amino]-N^2-(10,12-dimethyl-1-oxotetradecyl)-4-hydroxy-L-ornithine]-5-[(3IRI)-3-hydroxy-L-ornithine]pneumocandin B0 diacetate (salt) [Caspofungin acetate] | 0% | freely soluble | 
Nc1nc2c(ncn2COCCO)c(=O)[nH]1 [Acyclovir, 2-amino-1,9-dihydro-9-[(2-hydroxyethoxy)methyl]-6H-purin-6-one] | 10-20% |  | 
NC(=O)N1c2ccccc2C=Cc2ccccc21 [Carbamazepine, 5H-dibenz[b,f]azepine-5-carboxamide] |  |  | Bioavailability (in vivo, po): 89%
C#C[C@]1(O)CC[C@H]2[C@@H]3CCC4=Cc5oncc5C[C@]4(C)[C@H]3CC[C@@]21C [Danazol, 17a-Pregna-2,4-dien-20-yno[2,3-d]-isoxazol-17-ol] |  |  | Half-life (oral administration): 4 to 5 h; Time to peak plasma concentration (oral dose): ≤ 2 h
NCC1(CC(=O)O)CCCCC1 [Gabapentin] |  |  | Bioavailability (900 mg dose, given three times a day): ≤ 60%
CC(=O)O[C@H]1C(=O)[C@@]2(C)[C@H]([C@H](OC(=O)c3ccccc3)[C@]3(O)C[C@H](OC(=O)[C@H](O)[C@@H](NC(=O)c4ccccc4)c4ccccc4)C(C)=C1C3(C)C)[C@]1(OC(C)=O)CO[C@@H]1C[C@@H]2O [Paclitaxel] |  | insoluble | 
C=CC[C@@H]1/C=C(\C)C[C@H](C)C[C@H](OC)[C@H]2O[C@@](O)(C(=O)C(=O)N3CCCC[C@H]3C(=O)O[C@H](/C(C)=C/[C@@H]3CC[C@@H](O)[C@H](OC)C3)[C@H](C)[C@@H](O)CC1=O)[C@H](C)C[C@@H]2OC [Tacrolimus] |  | practically insoluble | Absolute bioavailability (5 mg dose taken twice a day): approximately 17%
CC(C)[C@H](N)C(=O)OCCOCn1cnc2c(=O)[nH]c(N)nc21 [Valacyclovir] | approximately 50% | greater solubility in water than acyclovir | 
CC[C@H]1OC(=O)[C@H](C)[C@@H](O[C@H]2C[C@@](C)(OC)[C@@H](O)[C@H](C)O2)[C@H](C)[C@@H](O[C@@H]2O[C@H](C)C[C@H](N(C)C)[C@H]2O)[C@](C)(OC)C[C@@H](C)C(=O)[C@H](C)[C@@H](O)[C@]1(C)O [clarithromycin] |  |  | Decrease in activity (H. pylori): > 16 fold
